In publication PMC6148290, “Endogenous metabolites of vitamin E limit inflammation by targeting 5-lipoxygenase” (Nature Communications, 2018):

Legend:
5-LO [1] = target: T1, 5-LO (Homo sapiens, UniProt P09917); assay: Activity of purified human recombinant 5-LO (cell-free); type: biochemical; parameters: made in house; host or cells: E. coli Bl21 (DE3); settings: cell-free; mean ± s.e.m., n = 3; read-out: IC50, human recombinant 5-LO
T1 sequence (P09917 1-674): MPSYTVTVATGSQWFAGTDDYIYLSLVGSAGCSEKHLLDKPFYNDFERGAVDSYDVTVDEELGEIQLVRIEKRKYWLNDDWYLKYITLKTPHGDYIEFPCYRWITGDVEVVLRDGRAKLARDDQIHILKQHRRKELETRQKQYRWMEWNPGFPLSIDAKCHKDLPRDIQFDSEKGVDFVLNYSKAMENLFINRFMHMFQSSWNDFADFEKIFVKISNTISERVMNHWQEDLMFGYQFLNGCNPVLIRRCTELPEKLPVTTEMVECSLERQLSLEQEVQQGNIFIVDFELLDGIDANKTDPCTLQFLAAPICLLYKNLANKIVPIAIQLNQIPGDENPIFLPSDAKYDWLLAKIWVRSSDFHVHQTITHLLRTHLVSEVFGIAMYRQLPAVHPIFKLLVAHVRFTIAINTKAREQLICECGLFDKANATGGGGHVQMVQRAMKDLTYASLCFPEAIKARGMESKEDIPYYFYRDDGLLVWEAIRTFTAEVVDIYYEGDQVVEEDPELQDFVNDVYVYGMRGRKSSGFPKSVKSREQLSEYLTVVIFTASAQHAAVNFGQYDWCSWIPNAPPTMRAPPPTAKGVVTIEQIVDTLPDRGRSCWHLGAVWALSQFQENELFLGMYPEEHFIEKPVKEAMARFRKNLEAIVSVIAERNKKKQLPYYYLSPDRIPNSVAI
Protocol: E. coli Bl21 (DE3) cells were transformed with pT3–5LO plasmid to express human recombinant 5-LO, which was purified by affinity chromatography on an ATP-agarose column. In brief, E. coli was lysed in 50 mM triethanolamine/HCl pH 8.0 plus EDTA (5 mM), soybean trypsin inhibitor (60 µg/ml), phenylmethanesulphonyl fluoride (1 mM), dithiothreitol (1 mM), and lysozyme (1 mg/ml). After sonication (3 × 15 s), the homogenate was centrifuged at 10,000 × g for 15 min and the supernatant again at 40,000 × g for 70 min at 4 °C. The supernatant was applied to an ATP-agarose column (Sigma-Aldrich), and the column was washed with (i) PBS pH 7.4, 1 mM EDTA, (ii) 50 mM phosphate buffer pH 7.4, 0.5 M NaCl, 1 mM EDTA, and (iii) 50 mM phosphate buffer pH 7.4, 1 mM EDTA. 5-LO was eluted with 50 mM phosphate buffer pH 7.4, 1 mM EDTA, 20 mM ATP.
Purified 5-LO (0.5 µg) in PBS pH 7.4 containing EDTA (1 mM) and ATP (1 mM) was pre-incubated with LCMs for 10 min at 4 °C, pre-warmed for 30 s at 37 °C and 5-LO product formation was started by addition of AA (Sigma-Aldrich; 20 µM if not indicated otherwise) plus CaCl2 (2 mM). […] AA was added after incubation for 5 min on ice.

5-LO [2] = target: T1, 5-LO; assay: 5-LO product formation in activated PMNL; type: cell-based; parameters: Freshly isolated PMNL (1 × 10^7); endogenous in cells; host or cells: human PMNL freshly isolated from leukocyte concentrates; settings: cell-based; mean ± s.e.m., n = 3; read-out: IC50, activated PMNL (5-LO)
Excerpt: Human PMNL, monocytes, PBMC, and platelets were freshly isolated from leukocyte concentrates. The protocols for experiments with human blood and blood cells were approved by the ethical commission of the Friedrich-Schiller-University Jena. […] PMNL were recovered from the pellet after hypotonic lysis of erythrocytes. Platelets were obtained from the supernatant and washed with PBS pH 5.9/0.9% NaCl (1:1). […]

12-LO = target: T2, 12-LO (Homo sapiens, UniProt P18054); assay: 12-LO product formation in A23187/AA-activated PMNL; type: cell-based; settings: at 3 µM; mean ± s.e.m., n = 3; n.i. no inhibition
T2 construct: 12-HETE (12-LO product from platelets in PMNL preparations); endogenous in cells; host or cells: platelets contaminating human PMNL preparations
T2 sequence (P18054 1-663): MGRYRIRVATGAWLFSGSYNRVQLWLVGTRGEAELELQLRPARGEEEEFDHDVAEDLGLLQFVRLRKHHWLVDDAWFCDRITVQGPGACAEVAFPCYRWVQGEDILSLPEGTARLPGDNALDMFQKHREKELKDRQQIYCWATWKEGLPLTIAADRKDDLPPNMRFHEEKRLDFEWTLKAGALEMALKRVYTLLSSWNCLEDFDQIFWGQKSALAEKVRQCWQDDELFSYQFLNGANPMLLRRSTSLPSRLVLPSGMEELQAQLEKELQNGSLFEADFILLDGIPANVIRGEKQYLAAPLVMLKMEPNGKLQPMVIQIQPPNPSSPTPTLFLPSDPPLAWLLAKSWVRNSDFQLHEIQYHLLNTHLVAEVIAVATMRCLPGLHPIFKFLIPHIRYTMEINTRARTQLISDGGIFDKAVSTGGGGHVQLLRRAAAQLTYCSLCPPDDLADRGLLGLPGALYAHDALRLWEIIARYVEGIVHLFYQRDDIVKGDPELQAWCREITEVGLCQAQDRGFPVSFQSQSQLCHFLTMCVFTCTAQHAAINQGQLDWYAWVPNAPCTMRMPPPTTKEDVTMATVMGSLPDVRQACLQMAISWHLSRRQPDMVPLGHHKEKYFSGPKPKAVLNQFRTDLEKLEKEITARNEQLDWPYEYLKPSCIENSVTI
Protocol: (§1) Cells were washed and medium was exchanged. Freshly isolated PMNL (1 × 10^7) and stably transfected HEK-293 (1 × 10^6) cells were suspended in PBS pH 7.4 containing 1 mg/ml glucose and 1 mM CaCl2. […] A23187- and A23187/AA-treated PMNL and A23187/AA-treated HEK-293 (5-LO_wt), HEK-293 (5-LO_3W) and HEK-293 (5-LO_Arg101Asp) cells produced 135 ± 21, 636 ± 112, 300 ± 59, 133 ± 29, 55 ± 9 ng 5-LO products, respectively. PMNL synthesized 29 ± 6 ng 12-HETE and 97 ± 23 ng 15-HETE when challenged with A23187/AA. 5-LO products from monocytes were analyzed by UPLC-MS/MS.

[3] = system: peripheral blood mononuclear cells; assay: Cell viability of PBMC (MTT assay); type: cell-based, human; settings: 24 h
Protocol: The formazan product was solubilized with SDS (10% in 20 mM HCl), and absorbance was measured at 570 nm using a Multiskan Spectrum microplate reader (Thermo Fisher Scientific).

15-LO = 15-LO product formation in A23187/AA-activated PMNL; type: cell-based, human; settings: at 3 µM; mean ± s.e.m., n = 3; n.i. no inhibition
Protocol: as §1

[4] = cited from earlier work; for plasma levels in humans: ref Mangialasche et al., 2012
[5] = target: T3, human recombinant LTC4 synthase (LTC4S) (Homo sapiens, UniProt Q16873); assay: LTC4 synthase activity; type: biochemical; settings: 10 µM; reference inhibitor
T3 construct: expressed in transfected cells; host or cells: HEK-293 cells stably expressing LTC4S (microsomal membranes)
T3 sequence (Q16873 1-150): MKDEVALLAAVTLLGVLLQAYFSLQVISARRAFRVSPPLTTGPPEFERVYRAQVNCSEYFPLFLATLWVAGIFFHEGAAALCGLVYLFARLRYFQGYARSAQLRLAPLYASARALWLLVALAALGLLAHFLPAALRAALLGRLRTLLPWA
Protocol: To investigate the effect of LCMs on LTC4S activity, we used microsomal membranes from HEK-293 cells stably expressing LTC4S[70]. […] The conversion of LTA4 to LTC4 methyl esters was initiated by addition of LTA4 methyl ester (Cayman Chemicals; 1 µM). After 10 min at 4 °C, the reaction was terminated by ice-cold methanol (one volume), and LTC-d5 methyl ester (5 ng; Cayman Chemicals) was added as internal standard. LTC4 was extracted and analyzed by UPLC-MS/MS as described for lipid mediators. Vehicle (DMSO)-treated microsomal membranes produced 7.1 ± 0.5 nmol LTC4.

[6] = system: zymosan-induced murine peritonitis; assay: Zymosan-induced peritonitis in mice; type: in vivo, mouse; settings: 10 mg/kg i.p.; 30 min post zymosan; ELISA
Protocol: Mice were killed by inhalation of CO2 after another 30 min for determination of LTC4 levels and vascular permeability and after 4 h for the analysis of LTB4 levels, lipidomic profiles and immune cell infiltration. Cell infiltration and lipid mediator profiles during resolution were studied after 18 h. Peritoneal exudates were collected and cells counted after vital trypan blue staining. LTC4, LTB4, and PGE2 were analyzed in the exudate by enzyme immunoassays (Enzo Life Sciences, Lörrach, Germany) according to manufacturer's instructions. To assess vascular permeability, Evans blue dye (40 mg/kg in saline, 0.3 ml; Sigma-Aldrich) was injected into the tail vain immediately before the induction of peritonitis. Exudates were centrifuged (3000 × g, 5 min) and the absorbance of the supernatants was measured at 610 nm using a Beckman Coulter DU730 spectrophotometer. To investigate the effect of α-T (1a) on the accumulation of α-T-13'-COOH (4a) in infiltrated leukocytes after peritonitis has been established, vehicle or α-[…].) were given 1 h before and/or 4 h post zymosan injection, and mice were killed after another 1.5 h. Leukocytes were obtained from peritoneal exudates by centrifugation (1200 × g, 10 min, 4 °C).

DPPH radical scavenging = settings: 50 µM; control
Protocol: Compounds were incubated with 2,2-diphenyl-1-picrylhydrazyl (DPPH, Sigma-Aldrich; […]) in ethanol for 30 min. Absorbance was measured at 520 nm using a Multiskan Spectrum Microplate Reader (Thermo Fisher Scientific)[35]. Ascorbic acid (Sigma-Aldrich; 50 µM), used as control, scavenged DPPH radicals by 82.4 ± 1.9%.

[7] = at 1 and 10 µM (one entry for both), n.i. no inhibition

Structure (SMILES) | IC50 (5-LO [1]) | IC50 (5-LO [2]) | 12-LO product formation/PMNL, residual activity (12-LO) | suppression of LTC4 formation [5] | Cell viability/peripheral blood mononuclear cells, residual viability [3, 7] | 15-LO product formation/PMNL, residual activity (15-LO) | Cell viability/peripheral blood mononuclear cells, residual viability ([3]; at 1 µM) | Cell viability/peripheral blood mononuclear cells, residual viability ([3]; at 10 µM) | plasma levels in humans [4] | LTC4 levels in the exudate [6] | hepatic tissue concentrations ([4]; ref Nagita et al., 1997) | human plasma level ([4]; ref Nagita et al., 1997) | DPPH radicals scavenged (DPPH radical scavenging)
Cc1cc(O)cc2c1O[C@](C)(CCC[C@H](C)CCC[C@H](C)CCCC(C)C)CC2 [1d] | 310 ± 100 nM | 85000 ± 5000 nM | n.i. |  | n.i. | 86.6 ± 15.8 % of control |  |  | 0.01 µM |  |  |  | 
CC(C)=CCC/C(C)=C/CC/C(C)=C/CC[C@]1(C)CCc2cc(O)cc(C)c2O1 [1h] | 170 ± 100 nM | 60000 ± 15000 nM | 87.6 ± 8.5 % of control |  | n.i. | n.i. |  |  |  |  |  |  | 
Cc1c(C)c2c(c(C)c1O)CC[C@@](C)(CCC[C@H](C)CCC[C@H](C)CCCC(C)C)O2 [1a, α-tocopherol] | > 1000 nM | 808000 ± 159000 nM | n.i. |  | n.i. | n.i. |  |  | 25 to 35 µM | significantly less effective | 70 to 530 nmol/g | 14 to 27 µM | 
Cc1c(O)cc2c(c1C)O[C@](C)(CCC[C@H](C)CCC[C@H](C)CCCC(C)C)CC2 [1c] | 910 ± 150 nM | 502000 ± 199000 nM | n.i. |  | n.i. | n.i. |  |  |  |  |  |  | 
Cc1cc(O)c(C)c2c1O[C@](C)(CCC[C@H](C)CCC[C@H](C)CCCC(C)C)CC2 [1b] | 750 ± 150 nM | 57000 ± 2000 nM | n.i. |  | n.i. | n.i. |  |  |  |  |  |  | 
O=C1O[C@H]([C@@H](O)CO)C(O)=C1O [Ascorbic acid, reference compound] |  |  |  |  |  |  |  |  |  |  |  |  | 82.4 ± 1.9%

The next lines start with results.

IC50 (5-LO [1]) | IC50 (5-LO [2]) | 12-LO product formation/PMNL, residual activity (12-LO) | suppression of LTC4 formation [5] | Structure (SMILES) | Cell viability/peripheral blood mononuclear cells, residual viability [3, 7] | 15-LO product formation/PMNL, residual activity (15-LO) | Cell viability/peripheral blood mononuclear cells, residual viability ([3]; at 1 µM) | Cell viability/peripheral blood mononuclear cells, residual viability ([3]; at 10 µM) | plasma levels in humans [4] | LTC4 levels in the exudate [6] | hepatic tissue concentrations ([4]; ref Nagita et al., 1997) | human plasma level ([4]; ref Nagita et al., 1997) | DPPH radicals scavenged (DPPH radical scavenging)
350 ± 40 nM | 190 ± 50 nM | 84.7 ± 4.7 % of control |  | Cc1c(C)c2c(c(C)c1O)CC[C@@](C)(CCCC(C)CCCC(C)CCCC(C)CO)O2 (stereo partly shown) [2a] | n.i. | 156.7 ± 26.2 % of control |  |  |  |  |  |  | 
120 ± 30 nM | 140 ± 20 nM |  |  | C/C(=C/CC/C(C)=C/CC/C(C)=C/CC[C@]1(C)CCc2cc(O)c(C)c(C)c2O1)CO [3g] |  | 168.8 ± 1.2 % of control | n.i. | 43.7 ± 16.2 % of control |  |  |  |  | 
 |  |  | 95.6 ± 0.9% | CC(C)c1ccc2c(c1)c(SC(C)(C)C)c(CC(C)(C)C(=O)O)n2Cc1ccc(Cl)cc1 [MK-886, reference compound] |  |  |  |  |  |  |  |  | 
150 ± 50 nM | 1260 ± 330 nM | n.i. |  | C/C(=C\CC/C(C)=C/CC/C(C)=C/CC[C@]1(C)CCc2cc(O)cc(C)c2O1)CO [2h] | n.i. | n.i. |  |  |  |  |  |  | 
120 ± 40 nM | 540 ± 20 nM | 84.8 ± 7.8 % of control |  | Cc1cc(O)cc2c1O[C@](C)(CCC[C@H](C)CCC[C@H](C)CCCC(C)CO)CC2 (stereo partly shown) [2d] | n.i. | 142.8 ± 13.9 % of control |  |  |  |  |  |  | 
